Measurements taken from a melting point compilation (Tetko et al.; mined from patent text by program, amines drawn as free bases though some values may be those of a salt).

Row | Structure (SMILES) | melting point
1 | O=C(O)CNS(=O)(=O)c1ccc(N2CCN(c3ccccc3)CC2)cc1 | 120 to 124 °C
2 | CCOC(=O)[C@H](Cc1ccc(-c2c(C(F)(F)F)cc(C)n(C)c2=O)cc1)NC(=O)c1c(Cl)cccc1Cl | 86 to 91 °C
3 | CC(C)C(C#N)NC(=O)c1snc(Cl)c1Cl (stereo not given) | 120 to 121 °C
4 | Cc1ccc(C[C@@H]2CN(C(=O)/C=C/c3ccccc3)CCN2C(=O)c2cc(C(F)(F)F)cc(C(F)(F)F)c2)cc1C | 87 to 91 °C
5 | Nc1ccc(Cl)cc1C(=O)Nc1ccc(S(=O)(=O)N2CCOCC2)cc1 | 229 to 231 °C
6 | CC(=O)OCCc1ccc2sc(S(N)(=O)=O)cc2c1 | 120 to 122 °C
7 | Cc1ccc(-c2oc(C(F)(F)F)nc2-c2ccccc2)cc1S(N)(=O)=O | 156 to 157 °C
8 | Nc1cc(Cl)c(N2CCC(N3CCOCC3)CC2)c(Cl)c1 | 144 to 146 °C
9 | COc1ccc2c(c1)CCC(Cc1ccccc1)C2=O (stereo not given) | 50 to 51 °C
10 | O=C(Cc1c[nH]c2ccccc12)Nc1ccccc1C(=O)O | 205 to 207 °C
11 | CC(=Cc1ccccc1)c1ccc2c(c1)C(C)(C)C(O)C2(C)C (stereo not given) | 63 to 67 °C
12 | N=C(Nc1ccc(CNCc2ccccc2)cc1)c1cccs1 | 73 to 74 °C
13 | c1ccc2c(c1)Nc1cc(-c3csc(CN4CCCCC4)n3)ccc1S2 | 186 to 188 °C
14 | O=C(NCc1ccc(F)cc1)c1nc2n(c(=O)c1O)CCN2Cc1ccccc1 | 225 °C
15 | NC(=O)CCN1CCCCC1 | 105 to 107 °C
16 | CCn1ncc2c(-c3cncc(C)c3)c(CCC(=O)O)c(-c3ocnc3C)nc21 | 184 to 186 °C
17 | NC(=O)c1nnn(Cc2ccc(Sc3ccc(Cl)cc3)c(Cl)c2)c1N | 202 to 204 °C
18 | CC(C(=O)O)c1ccc(C(=O)c2ccc(Cl)s2)cc1 (stereo not given) | 137 °C
19 | Nc1cccc(Cl)c1-c1nc(-c2ccncc2)c(-c2ccc(Cl)cc2)[nH]1 | 220 to 222 °C
20 | COc1ccc(C2CSc3ccccc3NC2=O)cc1 (stereo not given) | 145 °C
21 | c1ccc(-c2ccc3cc(COc4ccc(CCCn5ccnc5)cc4)cnc3c2)cc1 | 135 to 136 °C
22 | O=C(Nc1ccccc1)C1=C(O)c2cccc(-c3ccccc3)c2OS1 | 175 °C
23 | NC(=O)c1nc(-c2cccnc2O)nc2c1[nH]c(=O)n2-c1ccccc1C(F)(F)F | 331 to 335 °C
24 | Cc1cc(-n2ccc(OCC3CC3)cc2=O)sc1C(=O)NCc1ccccc1 | 175 to 177 °C

Row | Structure (SMILES) | melting point
25 | O=C(O)c1ccc(N2Cc3ccccc3C2=O)cc1 | > 295 °C
26 | COC(=O)Cc1ccc[nH]c1=O | 183 to 184 °C
27 | O=C(O)CC12CC3CC(CC(Cl)(C3)C1)C2 | 182 to 184 °C
28 | CCOC(=O)Cc1sc(Sc2nccc(C)c2C(=O)OCC)nc1C | 85 to 87 °C
29 | CCCCc1nc2c(N)nc3cc(/C=C/c4ccccc4)ccc3c2n1CC(C)C | 215 to 216 °C
30 | FC(F)c1nc2ccccc2n1-c1nc(NCc2ccccn2)nc(N2CCOCC2)n1 | 192 to 193 °C
31 | N#Cc1cccnc1CC1COc2cc3c(cc2O1)OCC31C(=O)Cc2ccccc21 (stereo not given) | 230 to 233 °C
32 | COCCOCOc1ccc(-c2nnc(S)o2)cc1OCOCCOC | 84 °C
33 | COC(=O)c1cc2ccnc(NS(=O)(=O)c3cccs3)c2[nH]1 | 159 to 160 °C
34 | Cc1cc(C)c(C2C(=O)CC(c3ccccc3)CC2=O)c(C)c1 (stereo not given) | 215 to 216 °C
35 | Fc1ccc(-c2ncn(C3CCNCC3)c2-c2ccnc(Oc3ccccc3)n2)cc1 | 182 to 183 °C
36 | CC(C)=CCN1CCc2c(sc(N)c2C(=O)c2ccc(I)cc2)C1 | 148 to 150 °C
37 | Cn1cc(C(=O)NCc2ccc(Cl)cc2)c(=O)c2cc(CN(CCO)Cc3ccccc3)ccc21 | 133 to 135 °C
38 | CCCCCCCCCCCCN1C(C)(C)CC(O)CC1(C)C | 41 to 42 °C
39 | C=CCc1cc(C(C)=O)c(OC)cc1OCCCCC#N | 40 to 42 °C
40 | Clc1ccc(CN2CCN(CCN3CCCCC3)CC2c2ccccc2)cc1 (stereo not given) | 85 to 87 °C
41 | CC(C)(C)OC(=O)N1CCc2c(cccc2C(=O)c2cc(Cl)ccc2N)C1 | 159 to 160 °C
42 | CC(=NO)c1ccccc1Nc1c(Cl)ccc(C)c1Cl | 116 to 118 °C
43 | CCCOC(Cc1ccc(OCCc2nc(C(C)(C)C)oc2C)c2ccccc12)C(=O)O (stereo not given) | 135 to 137 °C
44 | C=CCn1c(C)c(C)c2cnnc(OCc3ccc(C(F)(F)F)cc3)c21 | 95 to 96 °C
45 | COc1ccccc1C1(CC(=O)N2CCN(c3ccncc3)CC2)C(=O)Nc2ccc(Cl)cc21 (stereo not given) | 111 °C
46 | Cc1ccc(NS(=O)(=O)c2ccccc2)c(C(=O)O)c1 | 197 to 198 °C
47 | CCN1c2ncccc2C(=O)Nc2c(C)cc(NCCn3cc[nH]c3=O)nc21 | > 300 °C
48 | COc1ccc(CNc2nc(-c3ccc(C(=O)O)cc3)nc3c2c2c(n3C(C)c3ccccc3)CCCC2)cc1Cl (stereo not given) | 179 °C

Row | Structure (SMILES) | melting point
49 | [N-]=[N+]=NCCO/N=C(\C(=O)O)c1csc(N)n1 | 180 °C
50 | CC(=O)Nc1cccc(C#Cc2ccc([C@@H]3CC[C@@H]4CCCCN43)cc2)c1 (relative stereo) | 161 to 163 °C
51 | c1cnc(NC2CCN(C3CCCC3)CC2)nc1 | 118 °C
52 | NS(=O)(=O)c1ccccc1C=C1CCOC1=O | 178 to 180 °C
53 | CCc1c(Cc2[nH]c(Cc3[nH]c(C(=O)OCc4ccccc4)c(C)c3CC)c(CC)c2CC)[nH]c(C(=O)OCc2ccccc2)c1C | 211 °C
54 | Cc1cc([N+](=O)[O-])ccc1NC1CC1 | 35 to 37 °C
55 | COc1cc(C(=O)O)ccc1Cc1cn(CCC(N)=O)c2ccc(C(=O)NCC3CCCC3)cc12 | 129 to 131 °C
56 | Cn1cc(C2=C(c3cn(C4CN(C(c5ccccc5)c5ccccc5)C4)c4ccccc34)C(=O)NC2=O)c2ccccc21 | 102 to 105 °C
57 | CCOC(=O)CCc1ccc(C(C)(C)C)c(NC(=O)CC2c3ccccc3Oc3ccccc32)c1 | 160 to 162 °C
58 | O=C(Nc1ccc(OCCN2CCOCC2)c2ccccc12)NC1CC1c1ccccc1 (stereo not given) | 156 to 157 °C
59 | C[C@@H](n1ncnn1)[C@](O)(Cn1ccnc1)c1ccc(F)cc1F | 158 to 160 °C
60 | Cc1ccc2c(c1)c(=O)c1c(cnn1C)n2CCCNS(C)(=O)=O | 179 °C
61 | CC(=Cc1ccccc1)COc1cc(C)c(NC=O)c(C)c1C | 152 to 154 °C
62 | Cc1ccc(-c2nc(N3CCOCC3)c3c(C)c(C#N)sc3n2)cc1 | 206 to 207 °C
63 | CCCCN(CCCC)Cc1nc(-c2ncn3c2[C@@H]2CCN2C(=O)c2c(Cl)cccc2-3)no1 | 120 to 125 °C
64 | Nc1nc(C(=O)O)c(-c2ccncc2)s1 | 211 °C
65 | N#CNC(=O)C12CC3CC(CC(C3)C1)C2 | 164 to 166 °C
66 | CN(c1cccc2cc(C(=O)NCC(C)(C#N)SCc3ccccc3)[nH]c12)S(=O)(=O)c1cccs1 (stereo not given) | 181 to 182 °C
67 | Cc1ccccc1NC(=O)Nc1ccc(C(=O)N2CCCCc3ccccc32)cc1 | 182 °C
68 | CC(=O)NC[C@H]1CN(c2ccc(N3CCC4(CCO4)CC3)c(F)c2)C(=O)O1 | 164 to 166 °C
69 | CCc1cc2c(NCCc3ccccc3)ccnc2s1 | 88 °C
70 | CCCCC(=O)OCC(=O)C12OCOC1CC1C3CCC4=CC(=O)C=CC4(C)C3C(O)CC12C (stereo not given) | 121 to 122 °C
